# Results taken from patent US20220324906A1 (Novo Nordisk A/S, priority 2014, published 2022).
# Assays:
# MuLV virus = experiment: Inactivation of MuLV with caprylic acid at different concentrations and pH; conditions: for Titre of MuLV virus after inactivation with caprylic acid: MuLV content 1.2 × 10^6; for Titre of MuLV after inactivating of MuLV with 60 mM caprylic acid: MuLV content 2.7 × 10^5
# Source text: The inactivation of MuLV was investigated at different concentrations of caprylic and at different pH (Table 6).
# eMuLV virus = experiment: Clearance of spiked eMuLV by chromatography with a caprylic acid wash; conditions: 30 min
# Description: A cell line media containing a recombinant human Fab-fragment was filtered through a 0.22 μm and then spiked with eMuLV virus. The spiked media was applied to a column packed with Capto L media (GE-Healthcare). […] Process temperature was 15-25° C. […] A cell line media containing a recombinant human antibody (IgG1) was filtered through a 0.22 μm filter and spiked with eMuLV virus. The spiked media was loaded on a column packed with Protein A (Mab Select SuRe, Ge Healthcare). […] After pH had stabilised the washing continued for 30 min. After 3 other washings (equilibration buffer, 50 mmol/kg phosphate, 1 mol/kg NaCl and then equilibration buffer), the mAb was eluted from the column with a formate buffer, pH 3.5. […] The process temperature was 15-25° C. A cell line media containing a recombinant human antibody (IgG4) was filtered through a 0.22 μm filter and spiked with eMuLV virus. The spiked media was loaded on a column packed with Protein A (Mab Select SuRe, Ge Healthcare). […] After pH had stabilised the washing continued for 30 min. After 3 other washing (equilibration buffer, 50 mmol/kg phosphate, 1 mol/kg NaCl) and then equilibration buffer), the mAb was eluted from the column with a formate buffer, pH 3.5. […] The process temperature was 15-25° C. A cell line media containing a recombinant human antibody (IgG1) was filtered through a 0.22 μm filter and spiked with eMuLV virus. The spiked media was loaded on a column packed with Protein A (Mab Select SuRe, Ge Healthcare). […] After pH had stabilised the washing continued for 30 min. After 3 other washings (equilibration buffer, 50 mmol/kg phosphate, 1 mol/kg NaCl and then equilibration buffer), the mAb was eluted from the column with a formate buffer, pH 3.5. […] The process temperature was 2-8° C.
# [1] = 60 mM, pH 6.0, free caprylic acid 4.3 mM, 1 minute
# [2] = 60 mM, pH 6.0, free caprylic acid 4.3 mM, 5 minutes
# [3] = 60 mM, pH 6.0, free caprylic acid 4.3 mM, 10 minutes
# [4] = 60 mM, pH 6.0, free caprylic acid 4.3 mM, 30 minutes
compound,measurement,setting,value
CCCCCCCC(=O)O [caprylic acid],Titre of MuLV virus after inactivation with caprylic acid,"MuLV virus; 10 mM, pH 5.0, free caprylic acid 4.4 mM, 5 minutes",0
same,Titre of MuLV virus after inactivation with caprylic acid,"MuLV virus; 10 mM, pH 5.0, free caprylic acid 4.4 mM, 10 minutes",0
same,Titre of MuLV virus after inactivation with caprylic acid,"MuLV virus; 10 mM, pH 5.0, free caprylic acid 4.4 mM, 30 minutes",0
same,Titre of MuLV virus after inactivation with caprylic acid,"MuLV virus; 20 mM, pH 5.5, free caprylic acid 3.9 mM, 5 minutes",0
same,Titre of MuLV virus after inactivation with caprylic acid,"MuLV virus; 20 mM, pH 5.5, free caprylic acid 3.9 mM, 10 minutes",0
same,Titre of MuLV virus after inactivation with caprylic acid,"MuLV virus; 20 mM, pH 5.5, free caprylic acid 3.9 mM, 30 minutes",0
same,inactivation of MuLV,"MuLV virus; 60 mM caprylic acid, pH range 5.9 to 6.3, within 5 minutes",more than 5.4 log 10
same,Titre of MuLV after inactivating of MuLV with 60 mM caprylic acid,"MuLV virus; 60 mM, pH 5.9, free caprylic acid 5.3 mM, 5 minutes",0
same,Titre of MuLV after inactivating of MuLV with 60 mM caprylic acid,"MuLV virus; 60 mM, pH 5.9, free caprylic acid 5.3 mM, 10 minutes",0
same,Titre of MuLV after inactivating of MuLV with 60 mM caprylic acid,"MuLV virus; 60 mM, pH 5.9, free caprylic acid 5.3 mM, 30 minutes",0
same,Titre of MuLV virus after inactivation with caprylic acid,MuLV virus; [1],0
same,Titre of MuLV after inactivating of MuLV with 60 mM caprylic acid,MuLV virus; [1],2.5
same,Titre of MuLV virus after inactivation with caprylic acid,MuLV virus; [2],0
same,Titre of MuLV after inactivating of MuLV with 60 mM caprylic acid,MuLV virus; [2],0
same,Titre of MuLV virus after inactivation with caprylic acid,MuLV virus; [3],0
same,Titre of MuLV after inactivating of MuLV with 60 mM caprylic acid,MuLV virus; [3],0
same,Titre of MuLV virus after inactivation with caprylic acid,MuLV virus; [4],0
same,Titre of MuLV after inactivating of MuLV with 60 mM caprylic acid,MuLV virus; [4],0
same,Titre of MuLV after inactivating of MuLV with 60 mM caprylic acid,"MuLV virus; 60 mM, pH 6.1, free caprylic acid 3.5 mM, 1 minute",0
same,Titre of MuLV after inactivating of MuLV with 60 mM caprylic acid,"MuLV virus; 60 mM, pH 6.1, free caprylic acid 3.5 mM, 5 minutes",0
same,Titre of MuLV after inactivating of MuLV with 60 mM caprylic acid,"MuLV virus; 60 mM, pH 6.1, free caprylic acid 3.5 mM, 10 minutes",0
same,Titre of MuLV after inactivating of MuLV with 60 mM caprylic acid,"MuLV virus; 60 mM, pH 6.1, free caprylic acid 3.5 mM, 30 minutes",0
same,Titre of MuLV after inactivating of MuLV with 60 mM caprylic acid,"MuLV virus; 60 mM, pH 6.2, free caprylic acid 2.8 mM, 5 minutes",0
same,Titre of MuLV after inactivating of MuLV with 60 mM caprylic acid,"MuLV virus; 60 mM, pH 6.2, free caprylic acid 2.8 mM, 10 minutes",0
same,Titre of MuLV after inactivating of MuLV with 60 mM caprylic acid,"MuLV virus; 60 mM, pH 6.2, free caprylic acid 2.8 mM, 30 minutes",0
same,Titre of MuLV after inactivating of MuLV with 60 mM caprylic acid,"MuLV virus; 60 mM, pH 6.3, free caprylic acid 2.2 mM, 5 minutes",0
same,Titre of MuLV after inactivating of MuLV with 60 mM caprylic acid,"MuLV virus; 60 mM, pH 6.3, free caprylic acid 2.2 mM, 10 minutes",0
same,Titre of MuLV after inactivating of MuLV with 60 mM caprylic acid,"MuLV virus; 60 mM, pH 6.3, free caprylic acid 2.2 mM, 30 minutes",0
same,inactivation of MuLV,"MuLV virus; caprylic acid concentrations of about 2 mM, after 30 minutes",partial inactivation
same,inactivation of MuLV,MuLV virus; free caprylic acid below 1 mM,no inactivation was observed
same,inactivation of MuLV,"MuLV virus; pH range 5.0 to 6.0, free caprylic acid at least about 4 mM, after 5 minutes",complete inactivation
same,LRV,"eMuLV virus; Example 2: IgG1, Protein A, 32 mmol/kg caprylate buffer pH 5.8 (2.9 mM free caprylic acid), 15-25° C.",>3.0
same,LRV,"eMuLV virus; Example 3: IgG4, Protein A, 32 mmol/kg caprylate buffer pH 5.8 (2.9 mM free caprylic acid), 15-25° C.",>2.8
same,LRV,"eMuLV virus; Example 4: IgG1, Protein A, 35 mmol/kg caprylate buffer pH 5.7 (3.9 mM free caprylic acid), 2-8° C.",>3.0
